Results on six compounds are retold here after patent EP4818157A1, “N-SUBSTITUTED CYCLIC AMIDE COMPOUND” (Kissei Pharmaceutical Co., Ltd., priority 2023, dated 2025).

Where two headings read alike, the source gives them in different places.

The target in one assay is T1, human TSHR (Homo sapiens, UniProt P16473).
T1 construct: expressed in transfected cells
Kind of assay: Measurement of antagonist activity using TSH-induced cAMP production in human TSHR-stably expressing CHO cells. Format: cell-based. The note with it: human TSH final concentration 50 ng/mL. The essentials: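 CHO cells stably expressing human TSHR, in HBSS/20 mM HEPES/1 mM IBMX, pre-incubated with compound 15 min at room temperature, then stimulated 1 h at 37°C with human TSH (50 ng/mL final). cAMP measured by HTRF (665/620 nm), expressed as % of control; IC50 from concentration-response.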
(Cyclic AMP is a second messenger, typically raised through Gs and lowered through Gi signalling.)

A further assay addresses T2, TSHR (Mus musculus, UniProt P47750).
T2 construct: host or cells: mouse, in vivo (TRH- or M22-administered)
To be noted: cited from earlier work.

T1 sequence (P16473 21-764): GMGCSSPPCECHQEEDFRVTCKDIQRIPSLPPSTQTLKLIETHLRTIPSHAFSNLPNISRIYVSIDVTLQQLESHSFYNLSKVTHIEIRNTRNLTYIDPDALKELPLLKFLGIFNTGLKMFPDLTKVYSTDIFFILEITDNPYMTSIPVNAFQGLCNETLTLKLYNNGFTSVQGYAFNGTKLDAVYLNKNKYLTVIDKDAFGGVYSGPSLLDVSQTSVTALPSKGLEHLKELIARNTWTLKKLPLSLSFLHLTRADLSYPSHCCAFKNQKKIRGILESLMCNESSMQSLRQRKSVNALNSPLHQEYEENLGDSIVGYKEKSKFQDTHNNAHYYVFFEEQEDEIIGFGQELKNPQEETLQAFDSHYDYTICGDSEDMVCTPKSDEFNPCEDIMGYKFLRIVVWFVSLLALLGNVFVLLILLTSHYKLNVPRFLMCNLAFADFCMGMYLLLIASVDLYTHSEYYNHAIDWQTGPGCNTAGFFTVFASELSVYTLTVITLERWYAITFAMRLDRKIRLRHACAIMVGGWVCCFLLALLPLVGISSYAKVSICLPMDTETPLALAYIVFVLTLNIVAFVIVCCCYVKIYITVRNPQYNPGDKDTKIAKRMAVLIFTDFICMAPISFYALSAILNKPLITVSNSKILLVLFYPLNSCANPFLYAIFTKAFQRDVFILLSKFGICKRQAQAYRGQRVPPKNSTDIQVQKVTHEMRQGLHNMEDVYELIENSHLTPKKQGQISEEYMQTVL
T2 sequence (P47750 22-764): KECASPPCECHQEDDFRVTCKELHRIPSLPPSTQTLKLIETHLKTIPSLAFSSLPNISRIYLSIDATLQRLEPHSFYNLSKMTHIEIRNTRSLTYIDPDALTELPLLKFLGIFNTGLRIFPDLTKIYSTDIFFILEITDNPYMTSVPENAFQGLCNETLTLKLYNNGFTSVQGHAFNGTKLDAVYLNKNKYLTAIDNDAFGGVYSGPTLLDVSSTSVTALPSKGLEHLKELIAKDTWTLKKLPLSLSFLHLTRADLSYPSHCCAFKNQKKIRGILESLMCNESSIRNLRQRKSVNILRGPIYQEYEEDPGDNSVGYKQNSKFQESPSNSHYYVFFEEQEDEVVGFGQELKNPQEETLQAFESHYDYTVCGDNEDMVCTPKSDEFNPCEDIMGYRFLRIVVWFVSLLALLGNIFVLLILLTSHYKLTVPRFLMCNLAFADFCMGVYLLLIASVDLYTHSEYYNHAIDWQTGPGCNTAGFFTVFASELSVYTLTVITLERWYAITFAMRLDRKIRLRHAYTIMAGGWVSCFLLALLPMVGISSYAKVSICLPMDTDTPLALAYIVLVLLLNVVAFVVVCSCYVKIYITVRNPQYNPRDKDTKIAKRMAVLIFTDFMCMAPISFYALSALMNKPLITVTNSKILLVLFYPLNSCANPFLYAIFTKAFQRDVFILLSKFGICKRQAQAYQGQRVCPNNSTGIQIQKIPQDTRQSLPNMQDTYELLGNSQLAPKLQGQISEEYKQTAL

Consider `NC(=O)N[C@@H]1Cc2sccc2N(Cc2cc(C(F)(F)F)ccc2F)C1=O` [Example F-5, (R)-1-(4-(2-fluoro-5-(trifluoromethyl)benzyl)-5-oxo-4,5,6,7-tetrahydrothieno[3,2-b]pyridin-6-yl)urea], for which the IC50 on human TSHR is less than 3 µM. Take `Cc1nc2c(s1)N(Cc1cc(C(F)(F)F)ccc1F)C(=O)[C@H](NC(N)=O)C2` [Example F-6, (R)-1-(4-(2-fluoro-5-(trifluoromethyl)benzyl)-2-methyl-5-oxo-4,5,6,7-tetrahydrothiazolo[5,4-b]pyridin-6-yl)urea]: at human TSHR, the 50% inhibitory concentration (IC50) lay within 3 to 30 µM.

In the case of `NC(=O)CC1Oc2ccccc2N(Cc2cc(C(F)(F)F)ccc2F)C1=O` (stereo not shown) [Example F-7, 2-(4-(2-fluoro-5-(trifluoromethyl)benzyl)-3-oxo-3,4-dihydro-2H-benzo[b][1,4]oxazin-2-yl)acetamide], on human TSHR, the IC50 is greater than 30 µM.

Turning to `CC(C)(C)OC(=O)Nc1ccc2c(c1)OC(CC(N)=O)C(=O)N2Cc1cc(C(F)(F)F)ccc1F` (stereo not shown) [Example F-8, tert-butyl (2-(2-amino-2-oxoethyl)-4-(2-fluoro-5-(trifluoromethyl)benzyl)-3-oxo-3,4-dihydro-2H-benzo[b][1,4]oxazin-7-yl)carbamate], the IC50 at human TSHR was less than 3 µM.

In turn, `CC(C)(C)NC(=O)Nc1ccc2c(c1)nc(NC(N)=O)c(=O)n2Cc1cc(C(F)(F)F)ccc1F` [Example F-9, 1-(tert-butyl)-3-(1-(2-fluoro-5-(trifluoromethyl)benzyl)-2-oxo-3-ureido-1,2-dihydroquinoxalin-6-yl)urea] displayed an IC50 against human TSHR of less than 3 µM.

Regarding `COc1ccc(C2Nc3ccccc3C(=O)N2Cc2ccco2)cc1COc1c(C)cc(NC(C)=O)cc1C` (stereo not shown) [NCGC00242364], the “blood T4 concentration” value at TSHR (TSH-releasing hormone (TRH)-administered mouse) and on TSHR (thyroid-stimulating antibody (M22)-administered mouse) was “lowering a blood T4 concentration” each time.

As a reminder, the IC50 is the concentration that gives 50% inhibition. Low readings indicate greater potency, high ones weaker potency.
